Experimental data: PubChem BioAssay (NCI)
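Tested at 5 concentrations; 48 h exposure; 96-well plates; endpoints linearly interpolated, else capped at highest concentration. GI50 is the concentration that inhibits growth by half. TGI marks complete inhibition of growth.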

Experiments:
Assay in all cases: DTP human tumour cell line panel, 48 h
EKVX NSCLC = tested on: EKVX NSCLC
HCT-116 colon = tested on: HCT-116 colon
HOP-62 NSCLC = tested on: HOP-62 NSCLC
HT29 colon = tested on: HT29 colon
NCI-H226 lung = tested on: NCI-H226 lung
OVCAR-4 ovarian = tested on: OVCAR-4 ovarian
SK-MEL-28 melanoma = tested on: SK-MEL-28 melanoma
MALME-3M melanoma = tested on: MALME-3M melanoma

SMILES	GI50 (EKVX NSCLC)	TGI (EKVX NSCLC)	GI50 (HCT-116 colon)	TGI (HCT-116 colon)	GI50 (HOP-62 NSCLC)	TGI (HOP-62 NSCLC)	GI50 (HT29 colon)	TGI (HT29 colon)	GI50 (NCI-H226 lung)	TGI (NCI-H226 lung)	GI50 (OVCAR-4 ovarian)	TGI (OVCAR-4 ovarian)	GI50 (SK-MEL-28 melanoma)	TGI (SK-MEL-28 melanoma)	TGI (MALME-3M melanoma)	GI50 (MALME-3M melanoma)
N#Cc1cccc(C(=O)Nc2cccc(NC(=O)c3cccc(C#N)c3)c2)c1	> 100 µM	> 100 µM	78.1 µM	> 100 µM	33.5 µM	74 µM	> 100 µM	> 100 µM	49.1 µM	> 100 µM	> 100 µM	> 100 µM	> 100 µM	> 100 µM	–	–
C=C1CC2(C[C@@H](c3ccccc3)O[C@@H](c3ccccc3)C2)OC1=O (some centres undefined)	–	25.7 µM	–	3.71 µM	–	28.1 µM	–	8.97 µM	–	32 µM	–	13.5 µM	–	3.83 µM	4.28 µM	–
Cc1nc2cnc3cc(F)c(-c4ccc(Oc5ncccn5)cc4Cl)cc3c2n1[C@H]1CCN(C(=O)CO)C[C@@H]1F	3.23 µM	> 95.5 µM	0.255 µM	15.4 µM	0.642 µM	49.3 µM	0.0513 µM	16.9 µM	5.18 µM	29.8 µM	20.8 µM	> 83.9 µM	0.023 µM	12.1 µM	0.0316 µM	–
CC(C)[C@@]12C[C@@H](OC(=O)COC(=O)/C=C/c3ccccc3)[C@@](C)(O1)[C@@H]1CC[C@@H](C)[C@H]1[C@@H]2OC(=O)/C=C/c1ccccc1	> 100 µM	> 100 µM	> 100 µM	> 100 µM	> 100 µM	> 100 µM	> 100 µM	> 100 µM	> 100 µM	> 100 µM	> 100 µM	> 100 µM	> 100 µM	> 100 µM	> 100 µM	> 100 µM
CC1=CCC(OC(=O)C(C)(C)CCC(O)(C(=O)OC2(C(C)C)CCC3(C)OC3C2)C(C)C)(C(C)C)CC1 (centres undefined)	0.654 µM	1.41 µM	0.113 µM	0.381 µM	0.615 µM	1.63 µM	0.606 µM	1.75 µM	0.693 µM	1.85 µM	0.608 µM	1.87 µM	0.993 µM	3.01 µM	1.48 µM	0.733 µM
COc1ccc(-c2cnnn2-c2cc(OC)c3c(c2)OCO3)cc1	–	–	0.0596 µM	> 42.3 µM	0.113 µM	> 100 µM	0.0454 µM	–	5.71 µM	> 100 µM	5.9 µM	> 100 µM	0.58 µM	> 100 µM	–	–
N=c1c2c(-c3ccccc3)c(-c3ccccc3)n(Cc3ccccc3)c2ncn1CCCO	4.4 µM	21.3 µM	0.406 µM	4.84 µM	1.03 µM	7.05 µM	0.363 µM	3.77 µM	0.817 µM	12.9 µM	1.43 µM	13.4 µM	1.44 µM	3.4 µM	3.84 µM	1.55 µM
Cc1ccc(NC(=O)c2cc3ccccc3c(N=Nc3ccccc3O)c2O)c(C)c1	–	17.3 µM	–	2.2 µM	–	12.1 µM	–	13.8 µM	–	13.1 µM	–	11.6 µM	–	79.1 µM	5.87 µM	–
CCc1cccc2c3c(sc12)C(c1ccc(Cl)cc1)C(C#N)=C(N)O3 (centres undefined)	1.08 µM	14.7 µM	0.408 µM	9.59 µM	0.623 µM	11.1 µM	0.457 µM	3.61 µM	0.881 µM	9.43 µM	1.7 µM	17.3 µM	2.06 µM	19.3 µM	9.9 µM	0.712 µM
C=C(C)[C@@H]1CC[C@]2(C(=O)NCCNCCNCCN)CC[C@]3(C)[C@H](CC[C@@H]4[C@@]5(C)CC[C@H](O)C(C)(C)[C@@H]5CC[C@]43C)[C@@H]12	10.5 µM	26.6 µM	4.4 µM	18.7 µM	16.5 µM	33.5 µM	14.6 µM	34 µM	15.5 µM	40.4 µM	14.1 µM	33 µM	16 µM	30.6 µM	28.4 µM	14.6 µM
NC(=O)c1cc([N+](=O)[O-])c(Cl)c([N+](=O)[O-])c1	17.4 µM	35.7 µM	1.91 µM	3.53 µM	5.49 µM	17.8 µM	2.58 µM	5.51 µM	1.68 µM	3.22 µM	1.91 µM	3.9 µM	2.05 µM	4.34 µM	4.54 µM	2.27 µM
COc1ccc(-c2cc(-c3ccccc3)nc(N3CCN(CCNc4ccnc5cc(Cl)ccc45)CC3)n2)cc1	19 µM	48.3 µM	–	–	1.97 µM	4.04 µM	–	–	4.14 µM	25.1 µM	1.87 µM	4.05 µM	1.52 µM	2.94 µM	3.14 µM	1.61 µM
COC1(O)C(=O)c2ccccc2OC1(OC)c1ccccc1 (centres undefined)	–	> 100 µM	–	> 100 µM	–	> 100 µM	–	> 100 µM	–	> 100 µM	–	> 100 µM	–	> 100 µM	> 100 µM	–
COc1ccn2c(C(C)=O)cc(C(=O)c3ccc4c(c3)Sc3ccccc3N4)c2c1	0.183 µM	> 100 µM	0.0674 µM	4.93 µM	0.136 µM	> 100 µM	0.0918 µM	0.351 µM	0.286 µM	> 100 µM	–	> 100 µM	0.884 µM	> 100 µM	> 100 µM	> 27.8 µM
COC(=O)c1cc(-c2cc(OC)c(OC)c(OC)c2)[nH]c1N/N=C/c1c(Cl)cccc1Cl	8.72 µM	52.9 µM	1.11 µM	> 33 µM	2.1 µM	13 µM	3.18 µM	> 82.4 µM	9.54 µM	40.3 µM	0.666 µM	2.68 µM	2.8 µM	12.4 µM	8.2 µM	1.47 µM
O=C(/C=C/c1cccs1)c1ccc(Nc2nc(Nc3ccc(F)cc3)nc(Nc3ccc(F)cc3)n2)cc1	34.3 µM	> 100 µM	23.6 µM	> 100 µM	> 100 µM	> 100 µM	22.2 µM	70.5 µM	> 100 µM	> 100 µM	17.7 µM	46.2 µM	18.2 µM	39.1 µM	> 100 µM	40.4 µM
